# Key:
# Assay type in all cases: cell-based, dogs
# [1] = test system: biofilms representative of canine dental plaque; assay: Canine plate biofilm assay (PBA): biomass quantification (crystal violet assay); settings: 48 hours, extracts at 500 μg/ml, OD595 vs no active controls
# Method: (§1) The assay requires fresh supragingival canine dental plaque and saliva for inoculation. The inoculum consists of pooled dental plaque and unfiltered saliva sampled from a group of 14 dogs, varying in age, breed and oral health status.
# (§2) The plaque and saliva were resuspended in artificial saliva to form the inoculum of approximately 15% plaque and 30% saliva.
# (§3) The plate biofilm assay (PBA) utilises a 24 well plate format in which biofilms, representative of canine dental plaque, are grown on hydroxyapatite (HA) discs. Prior to being introduced to the 24 well assay plate, each HA disc is preconditioned for 2 hours in a solution of 50% filter sterilised canine saliva in artificial canine saliva. The preconditioning step stimulates the formation of a salivary pellicle on the HA disc surface. […] Each HA disc, with the exception of those being used for biomass quantification, is placed into 500 μl PBS and vortex mixed for 30 seconds to remove biofilm growth from the disc into solution. […] Biofilm-covered HA discs that are being used for biomass quantification are removed from the 24 well assay plate and used directly in the crystal violet assay.
# The total amount of biofilm grown on the HA discs was quantified using the crystal violet staining method. Biomass was represented as being directly proportional to the OD reading at 595 nm (OD595) of the samples compared to controls. […]
# Aerobes = assay: Canine plate biofilm assay (PBA): bacterial viable counts, aerobes; settings: extracts at 500 μg/ml, counted after 2 days, vs controls
# Method: as §1, §2
# as §3, with “saliva.” for “saliva. The preconditioning step stimulates the formation of a salivary pellicle on the HA disc surface.”
# (§4) Viable numbers of bacteria were quantified using Columbia blood agar plates supplemented with haemin and menadione. Aerobes were counted after incubation for 2 days and anaerobes, including black pigmenting colonies (BPC), were counted after incubation at appropriate conditions for 9 days. […]
# [2] = test system: Trypsin-like protease activity; assay: Canine plate biofilm assay (PBA): protease activity (liquid BAPNA assay); settings: 48 hours, extracts at 500 μg/ml, vs controls
# Method: as §1, §2, §3
# Trypsin-like protease activity was measured using the liquid BAPNA assay, a colourimetric assay in which the amount of trypsin present in a sample is directly proportional to the intensity of the colour developed. […]
# anaerobes = assay: Canine plate biofilm assay (PBA): bacterial viable counts, anaerobes; settings: extracts at 500 μg/ml, counted after 9 days, vs controls
# Method: as §1, §2
# as §3, with “saliva.” for “saliva. The preconditioning step stimulates the formation of a salivary pellicle on the HA disc surface.”
# as §4
# [3] = test system: black pigmenting colonies (BPC); assay: Canine plate biofilm assay (PBA): bacterial viable counts, black pigmenting colonies; settings: extracts at 500 μg/ml, counted after 9 days, vs controls
# Method: as §1, §2
# as §3, with “saliva.” for “saliva. The preconditioning step stimulates the formation of a salivary pellicle on the HA disc surface.”
# as §4
smiles,measurement,setting,value
"[H]/N=C(\N/C(=N/[H])NCCCCCCNC(=N)NC(=N)Nc1ccc(Cl)cc1)Nc1ccc(Cl)cc1 [Chlorhexidine, chlorhexidine]",Biomass (% reduction),[1],94.40%
same,Aerobe (log 10 reduction),Aerobes,2.87 log 10 reduction
same,Protease (% reduction),[2],95.76%
same,Anaerobe (Log 10 reduction),anaerobes,2.48 Log 10 reduction
same,BPC (Log 10 reduction),[3],2.74 Log 10 reduction

# — patent US8206690B2, “Oral health composition” (Mars Incorporated, priority 2006, dated 2012)
